The record followed here is US4892887A, “N,N'-bis(sulfonyl)hydrazines having antineoplastic activity” (Yale University, priority 1988, dated 1990).

“Also recorded” adds a separate entry of the source. Read-outs that look alike come from different tables or passages of the source.

For series [1], the system named is L1210 leukemia. As to the kind of experiment: Survival time of mice bearing the L1210 leukemia. As to conditions: for Max. % T/C L1210 Leukemia: Table V; for Av. Change wt. %: L1210 mice; for response vs control in vivo at 50 mg/kg / response vs control in vivo at 100 mg/kg / response vs control in vivo at 150 mg/kg: Mus musculus, read-out: % T/C. The format is in vivo, mouse (CDF-1 mice). The source says: The ascites cell forms of the L1210 leukemia, Sarcoma 180 and P388 leukemia were propagated in CDF-1 mice. […] Mice were weighed during the course of the experiments, and the percentage change in body weight from the onset to termination of therapy was used as an indication of host toxicity.
Each value represents the average of 5 animals per group.

For series [2], the system named is B16 melanoma. Kind of series: Survival time of mice bearing the B16 melanoma. The format is in vivo, mouse (C57B1 mice). As to conditions: for Max. % T/C B16 Melanoma: Table V; for Max. % T/C: Table IV, B16, at optimum effective daily dose; for Av. Change in wt., %: at optimum effective daily dose, B16 mice.
Experimental: This tumor was propagated in C57B1mice. Transplantation was carried out by removing tumors from donor mice bearing 14-day subcutaneous tumor growths. The tissue was fragmented to make a well-dispersed cellular suspension and diluted with Fischer's medium without serum so that one gram of tissue was suspended in 5 ml of solution. A portion (0.2 ml) of the resulting cell suspension was injected intraperitoneally into each recipient animal. All compounds were administered over a wide range of dosage levels by intraperitoneal injection, beginning 24 hours after tumor implantation, once daily for 6 consecutive days. The test compounds were injected as fine suspensions following homogenization in 2 to 3 drops of 20% aqueous Tween 80 and then made up to volume with isotonic saline. […] Mice were weighed during the course of the experiments, and the percent change in body weight from onset to termination of therapy was used as an indication of drug toxicity. Determination of the sensitivity of neoplasms to these agents was based on the prolongation of survival time afforded by the drug treatments.
^a Administered once daily for six consecutive days, beginnign 24
hours after tumor transplanation, with 5 animals being used per group.
^b Average change in body weight from onset to termination of therapy
^c % T/C = average survival time of treated/control animals ×
100. Each value represents the average of 5 animals per group.
Where [3] appears, read: 50 mg/kg once daily for six days.
[4] abbreviates: 100 mg/kg once daily for six days.
Setting [5] is: 150 mg/kg once daily for six days.
[6] abbreviates: 144 h, 50 mg/kg once daily for six days, L1210.
The mark [7] stands for this setting: 144 h, 100 mg/kg once daily for six days, L1210.

As for `COc1ccc(S(=O)(=O)N(C)NS(=O)(=O)Cc2ccccc2)cc1` [Compound 28], the “Max. % T/C L1210 Leukemia” value in series [1] was 152 % T/C. The “Max. % T/C B16 Melanoma” value in series [2] was determined as 160 % T/C.

Take `CN(NS(=O)(=O)c1ccccc1)S(=O)(=O)c1ccc2ccccc2c1` [Compound 45, N'-benzenesulfonyl-N-methyl-N-(2naphthalenesulfonyl)hydrazine]: the “Max. % T/C L1210 Leukemia” value in series [1] turned out to be 106 % T/C. Moreover, in series [2], the “Max. % T/C B16 Melanoma” value was determined as 163 % T/C.

Take `Cc1ccc(S(=O)(=O)NN(C)S(=O)(=O)c2ccc(I)cc2)cc1` [Compound 59]: in series [1], the “Max. % T/C L1210 Leukemia” value was 123 % T/C. In series [2], the “Max. % T/C B16 Melanoma” value was determined as 176 % T/C.

As for `Cc1ccc(S(=O)(=O)NN(C)S(=O)(=O)c2ccc3ccccc3c2)cc1` [Compound 46, N-(N'-naphthalenesulfonyl)-N-methyl-N'-(p-toluenesulronyl)hydrazine], in series [1], the “Max. % T/C L1210 Leukemia” value is 120 % T/C.

Take `CN(NS(C)(=O)=O)S(=O)(=O)c1ccc(Br)cc1` [Compound 44]: in series [2], the “Max. % T/C B16 Melanoma” value was determined as 221 % T/C.

Regarding `COc1ccc(S(=O)(=O)NN(C)S(=O)(=O)c2ccc(Cl)cc2)cc1` [Compound 32, N-(p-chlorobenzenesulfonyl)-N'-(p-methoxybenzenesulfonyl)-N-methylhydrazine], the “Max. % T/C L1210 Leukemia” value in series [1] came out at 130 % T/C. Further, the “Max. % T/C B16 Melanoma” value in series [2] stood at 153 % T/C.

`CN(NS(=O)(=O)c1ccc(Br)cc1)S(=O)(=O)Cc1ccccc1` [Compound 53]: the “Max. % T/C B16 Melanoma” value in series [2] amounted to 163 % T/C.

With `Cc1ccc(S(=O)(=O)N(C)NS(=O)(=O)c2ccc([N+](=O)[O-])cc2)cc1` [Compound 22], in series [2], the “Max. % T/C B16 Melanoma” value was found to be 192 % T/C.

For `CN(NS(=O)(=O)c1ccc2ccccc2c1)S(=O)(=O)c1ccccc1` [Compound 18], in series [2], the “Max. % T/C B16 Melanoma” value is 181 % T/C.

For the compound `CN(NS(=O)(=O)c1ccc2ccccc2c1)S(=O)(=O)c1ccc2ccccc2c1` [Compound 11, Nmethyl-N,N'bis(2-naphthalenesulfonyl)hydrazine], in series [1] (setting [3]), the “Average Survival Time of Treated Animals, days ± SE” value (shortened to “Average Survival Time … days ± SE”) is recorded as 11.4 ± 1.1 days and the “Av. Change wt. %” value is reported as “+6.9%”. Also, in series [1] (setting [4]), the “Average Survival Time … days ± SE” value is listed as 10.2 ± 0.4 days and the “Av. Change wt. %” value is “+3.0%”. Moreover, in series [1] (setting [5]), the “Average Survival Time … days ± SE” value is recorded as 14.0 ± 2.3 days and the “Av. Change wt. %” value is given as -3.3%. For the same compound, the response vs control in vivo at 50 mg/kg in series [1] (setting [6]) turned out to be 127%. The response vs control in vivo at 100 mg/kg in series [1] (setting [7]) is 113%. Also, in series [1] (L1210, 144 h), the response vs control in vivo at 150 mg/kg worked out at 156%. Further, in series [2], the “Max. % T/C” value is 164 % T/C and the “Av. Change in wt., %” value is recorded as “+4.6%”.

As to `CN(NS(C)(=O)=O)S(=O)(=O)c1ccc(Cl)cc1` [Compound 35, N-(p-chlorobenzenesulfonyl)-N'-methanesulfonyl-N-methylhydrazine], the “Max. % T/C L1210 Leukemia” value in series [1] came out at 167 % T/C. In addition, in series [2], the “Max. % T/C B16 Melanoma” value was 194 % T/C.

For the compound `COc1ccc(S(=O)(=O)N(C)NS(=O)(=O)c2ccc(Br)cc2)cc1` [Compound 25], in series [1], the “Max. % T/C L1210 Leukemia” value is given as 134 % T/C. Besides, the “Max. % T/C B16 Melanoma” value in series [2] worked out at 205 % T/C.

`COc1ccc(S(=O)(=O)N(C)NS(=O)(=O)c2ccc3ccccc3c2)cc1` [Compound 27]: the “Max. % T/C B16 Melanoma” value in series [2] is recorded as 163 % T/C.

In the case of `CN(NS(=O)(=O)Cc1ccccc1)S(=O)(=O)Cc1ccccc1` [Compound 55, N,N'-bis(benzylsulfonyl)-N-methylhydrazine], the “Max. % T/C B16 Melanoma” value in series [2] is listed as 152 % T/C.

On to `Cc1ccc(S(=O)(=O)N(C)NS(=O)(=O)c2ccc(Br)cc2)cc1` [Compound 20, N'-(p-bromobenzenesulfonyl)-N-methyl-N-(p-toluenesulfonyl)hydrazine], for which, in series [1], the “Max. % T/C L1210 Leukemia” value was found to be 169 % T/C. Moreover, the “Max. % T/C B16 Melanoma” value in series [2] was 161 % T/C.

In the case of `CN(NS(=O)(=O)c1ccc(Cl)cc1)S(=O)(=O)c1ccccc1` [Compound 16], in series [1], the “Max. % T/C L1210 Leukemia” value was determined as 122 % T/C. In addition, in series [2], the “Max. % T/C B16 Melanoma” value stood at 148 % T/C.

`CN(NS(=O)(=O)c1ccccc1)S(=O)(=O)Cc1ccccc1` [Compound 49, N'-benzenesulfonyl-N-benzylsulfonyl-N-methylhydrazine]: in series [1], the “Max. % T/C L1210 Leukemia” value was determined as 185 % T/C. Further, the “Max. % T/C B16 Melanoma” value in series [2] was found to be 208 % T/C.

For `CN(NS(C)(=O)=O)S(=O)(=O)c1ccc(I)cc1` [Compound 62], in series [2], the “Max. % T/C B16 Melanoma” value worked out at 195 % T/C.

On to `CN(NS(=O)(=O)C=Cc1ccccc1)S(=O)(=O)c1ccc(Cl)cc1` [Compound 34], for which the “Max. % T/C B16 Melanoma” value in series [2] is 143 % T/C.

As to `CN(NS(=O)(=O)c1ccc(Br)cc1)S(=O)(=O)c1ccc(Br)cc1` [Compound 41, N,N'-bis(p-bromobenzenesulfonyl)-N-methylhydrazine], in series [1], the “Max. % T/C L1210 Leukemia” value is 183 % T/C. Also, the “Max. % T/C B16 Melanoma” value in series [2] was 161 % T/C.

`CC(=O)Nc1ccc(S(=O)(=O)N(C)NS(=O)(=O)c2ccc(Br)cc2)cc1` [Compound 58]: the “Max. % T/C B16 Melanoma” value in series [2] is on record as 164 % T/C.

As to `CN(NS(=O)(=O)C=Cc1ccccc1)S(=O)(=O)C=Cc1ccccc1` [Compound 57], the “Max. % T/C B16 Melanoma” value in series [2] is reported as 171 % T/C.

`Cc1ccc(S(=O)(=O)NN(C)S(=O)(=O)Cc2ccccc2)cc1` [Compound 50]: the “Max. % T/C L1210 Leukemia” value in series [1] came to 144 % T/C. For the same compound, in series [2], the “Max. % T/C B16 Melanoma” value is 206 % T/C.

With `COc1ccc(S(=O)(=O)N(C)NS(=O)(=O)c2ccc(Cl)cc2)cc1` [Compound 24, N'-(p-chlorobenzenesulfonyl)-N-(p-methoxybenzene-sulfonyl)-N-methylhydrazine], the “Max. % T/C B16 Melanoma” value in series [2] was 170 % T/C.

Turning to `COc1ccc(S(=O)(=O)NN(C)S(=O)(=O)Cc2ccccc2)cc1` [Compound 51], in series [2], the “Max. % T/C B16 Melanoma” value is listed as 182 % T/C.

For `CN(NS(=O)(=O)C=Cc1ccccc1)S(=O)(=O)c1ccc(Br)cc1` [Compound 43, N-(p-bromobenzenesulfonyl)-N-methyl-N'-(2-styrenesulfonyl)hydrazine], in series [2], the “Max. % T/C B16 Melanoma” value came out at 178 % T/C.

For `CN(NS(=O)(=O)c1ccc(Cl)cc1)S(=O)(=O)c1ccc(Br)cc1` [Compound 40, N-(p-bromobenzenesulfonyl)-N'-(p-chlorobenzenesulfonyl)-N-methylhydrazine], the “Max. % T/C B16 Melanoma” value in series [2] came out at 145 % T/C.

With `Cc1ccc(S(=O)(=O)N(C)NS(=O)(=O)Cc2ccccc2)cc1` [Compound 6, N'-benzylsulfonyl-N-methyl-N-(p-toluenesulfonyl)hydrazine], in series [1] (setting [3]), the “Average Survival Time … days ± SE” value amounted to 16.0 ± 3.4 days and the “Av. Change wt. %” value is recorded as “+10.8%”. In addition, in series [1] (setting [4]), the “Average Survival Time … days ± SE” value was determined as 12.6 ± 0.8 days and the “Av. Change wt. %” value was “+2.4%”. Besides, in series [1] (setting [5]), the “Average Survival Time … days ± SE” value was 14.6 ± 1.9 days and the “Av. Change wt. %” value was -4.3%. In addition, the response vs control in vivo at 50 mg/kg in series [1] (setting [6]) was determined as 174%. In addition, the response vs control in vivo at 100 mg/kg in series [1] (setting [7]) stood at 137%. The response vs control in vivo at 150 mg/kg in series [1] (144 h, 150 mg/kg once daily for six days, L1210) is 159%. Moreover, the “activity against the L1210 leukemia (in words)” value in series [1] (mouse, in vivo) is “comparable to that of compounds 1-3 and 5; also recorded: relatively high level of activity”. In series [1] (optimal daily dosage level), the “increase in survival time of mice bearing the L1210 leukemia” value is reported as 74%. Also, in series [2], the “Max. % T/C” value worked out at 172 % T/C and the “Av. Change in wt., %” value is given as -2.4%.

Turning to `COc1ccc(S(=O)(=O)NN(C)S(=O)(=O)c2ccc(Br)cc2)cc1` [Compound 39, N-(p-bromobenzenesulfonyl)-N'-(p-methoxybenzene-sulfonyl)-N-methylhydrazine], the “Max. % T/C L1210 Leukemia” value in series [1] came out at 165 % T/C. The “Max. % T/C B16 Melanoma” value in series [2] was found to be 167 % T/C.

With `CN(NS(=O)(=O)c1ccc(Cl)cc1)S(=O)(=O)Cc1ccccc1` [Compound 52], in series [1], the “Max. % T/C L1210 Leukemia” value amounted to 128 % T/C. For the same compound, the “Max. % T/C B16 Melanoma” value in series [2] came out at 184 % T/C.

For `CN(NS(=O)(=O)c1ccccc1)S(=O)(=O)c1ccc(Cl)cc1` [Compound 31, N'-benzenesulfonyl-N-(p-chlorobenzenesulfonyl)-N-methylhydrazine], the “Max. % T/C L1210 Leukemia” value in series [1] is recorded as 111 % T/C. Moreover, the “Max. % T/C B16 Melanoma” value in series [2] was found to be 146 % T/C.

For the compound `CN(NS(=O)(=O)c1ccc(Br)cc1)S(=O)(=O)c1ccccc1` [Compound 19], the “Max. % T/C B16 Melanoma” value in series [2] came to 187 % T/C.

As for `CN(NS(=O)(=O)c1ccccc1)S(=O)(=O)c1ccc(Br)cc1` [Compound 37, N'-benzenesulfonyl-N-(p-bromobenzenesulfonyl)-N-methylhydrazine], in series [2], the “Max. % T/C B16 Melanoma” value is on record as 160 % T/C.

Take `Cc1ccc(S(=O)(=O)N(C)NS(=O)(=O)c2ccc3ccccc3c2)cc1` [Compound 21, N'-(2-naphthalenesulfonyl)-N-methyl-N-(p-toluenesulfonyl)hydrazine]: the “Max. % T/C L1210 Leukemia” value in series [1] was 134 % T/C.

Consider `CN(NS(C)(=O)=O)S(=O)(=O)Cc1ccccc1` [Compound 56], for which, in series [2], the “Max. % T/C B16 Melanoma” value is 203 % T/C.

Turning to `CN(NS(=O)(=O)c1ccc2ccccc2c1)S(=O)(=O)c1ccc(Br)cc1` [Compound 42, N-(p-bromobenzenesulfonyl)-N-methyl-N-(2-naphthalenesulfonyl)hydrazine], the “Max. % T/C B16 Melanoma” value in series [2] was 146 % T/C.

Regarding `CCS(=O)(=O)NN(C)S(=O)(=O)c1ccc(Cl)cc1` [Compound 36], the “Max. % T/C B16 Melanoma” value in series [2] amounted to 164 % T/C.

`CN(NS(=O)(=O)c1ccc2ccccc2c1)S(=O)(=O)Cc1ccccc1` [Compound 54]: the “Max. % T/C L1210 Leukemia” value in series [1] was found to be 115 % T/C.

Regarding `Cc1ccc(S(=O)(=O)NN(C)S(=O)(=O)c2ccc(Br)cc2)cc1` [Compound 38, N-(p-bromobenzenesulfonyl)-N-methyl-N'-(p-toluenesulfonyl)hydrazine], the “Max. % T/C L1210 Leukemia” value in series [1] came out at 127 % T/C.
